Experimental findings from patent publication US8802664B2 (Bioproject, priority 2010, dated 2014) are described below.

A word on the melting point: it is the temperature of the solid-liquid transition.

One series has as its target T1, human H4 receptor (Homo sapiens, UniProt Q9H3N8).
T1 construct: expressed in transfected cells
Put plainly: [3H]Histamine binding on membranes of CHO cells stably expressing human H4 receptor. In a few lines:
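First, thawed CHO membranes carrying human H4 were diluted to 20 μg protein per well in pH 7.4 Tris/EDTA buffer. Next, incubation was ended by rapid filtration through PEI-treated GF/B filters followed by cold rinses. Finally, retained radioactivity was counted; 10 μM JNJ 7777120 marked nonspecific binding.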

T1 sequence (Q9H3N8 whole entry): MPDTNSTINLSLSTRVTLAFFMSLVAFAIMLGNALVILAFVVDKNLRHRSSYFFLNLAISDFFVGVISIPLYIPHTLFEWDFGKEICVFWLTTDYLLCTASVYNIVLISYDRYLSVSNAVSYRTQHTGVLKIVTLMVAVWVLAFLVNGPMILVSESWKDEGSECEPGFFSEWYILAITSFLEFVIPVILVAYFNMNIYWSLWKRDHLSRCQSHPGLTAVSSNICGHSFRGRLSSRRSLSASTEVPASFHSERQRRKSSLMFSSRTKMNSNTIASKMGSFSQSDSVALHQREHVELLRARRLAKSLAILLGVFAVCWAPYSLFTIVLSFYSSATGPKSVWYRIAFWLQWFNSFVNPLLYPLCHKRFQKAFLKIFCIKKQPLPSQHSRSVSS

Molecule `COc1ccc(-c2cccc(C(NC3CCN(C)CC3)c3nc4ccccc4[nH]3)c2)cc1` (stereo not shown) [Example 222, [(1H-benzimidazol-2-yl)(4′-methoxy-biphenyl-3-yl)methyl](1-methylpiperidin-4-yl)amine] displayed a melting point of 110 °C. The Ki or IC50 activity class on human H4 receptor was under 300 nM.

Consider `CN1CCC(OC(c2cccc(N)c2)c2nc3ccccc3[nH]2)CC1` (stereo not shown) [Example 224, 3-[(1H-benzimidazol-2-yl)(1-methylpiperidin-4-yloxy)methyl]phenylamine], for which the melting point stood at 100 °C. The molecule further returned a Ki or IC50 activity class on human H4 receptor of under 300 nM.

Regarding `CN1CCC(OC(c2cccc(N=[N+]=[N-])c2)c2nc3ccccc3[nH]2)CC1` (stereo not shown) [Example 231, 2-[(3-azidophenyl)(1-methylpiperidin-4-yloxy)methyl]-1H-benzimidazole], the melting point was found to be 53 °C. This molecule had a Ki or IC50 activity class on human H4 receptor of under 300 nM.

The molecule `CN1CCC(OC(c2cccc(SC(C)(C)CCO)c2)c2nc3ccccc3[nH]2)CC1` (stereo not shown) [Example 235, 3-{3-[(1H-benzimidazol-2-yl)(1-methylpiperidin-4-yloxy)methyl]phenylsulfanyl}-3-methyl-butan-1-ol] yielded a melting point of 80 °C. At human H4 receptor, this molecule displayed a Ki or IC50 activity class of under 1000 nM.

The molecule `CN1CCC(OC(c2cccc(SCCCO)c2)c2nc3ccccc3[nH]2)CC1` (stereo not shown) [Example 246, 3-{3-[(1H-benzimidazol-2-yl)(1-methylpiperidin-4-yloxy)methyl]phenylsulfanyl}propan-1-ol] gave a melting point of 97 to 99 °C. The Ki or IC50 activity class on human H4 receptor is under 300 nM.

In turn, `CC(O)CSc1cccc(C(OC2CCN(C)CC2)c2nc3ccccc3[nH]2)c1` (stereo not shown) [Example 247, 1-{3-[(1H-benzimidazol-2-yl)(1-methylpiperidin-4-yloxy)methyl]phenylsulfanyl}propan-2-ol] came in with a melting point of 120 to 122 °C. For the same molecule, the Ki or IC50 activity class on human H4 receptor is under 300 nM.

`CN1CCC(OC(c2nc3ccccc3[nH]2)c2ccccc2OC(F)(F)F)CC1` (stereo not shown) [Example 251, 2-[(1-methylpiperidin-4-yloxy)(2-trifluoromethoxy-phenyl)methyl]-1H-benzimidazole] gave a melting point of 193 °C. Moreover, at human H4 receptor, the Ki or IC50 activity class was under 1000 nM.

Turning to `CN1CCC(OC(c2cccc(-c3ccn[nH]3)c2)c2nc3ccccc3s2)CC1` (stereo not shown) [Example 260, 2-{(1-methylpiperidin-4-yloxy)[3-(2H-pyrazol-3-yl)phenyl]methyl}benzothiazole], the melting point was 90 °C. Also, the Ki or IC50 activity class on human H4 receptor was under 30 nM.

As to `Cc1ccc(C(OC2CCN(C)CC2)c2nc3ccccc3[nH]2)cc1Br` (stereo not shown) [Example 261, 2-[(3-bromo-4-methylphenyl)(1-methylpiperidin-4-yloxy)methyl]-1H-benzimidazole], the melting point came to 92 °C. The molecule also yielded a Ki or IC50 activity class on human H4 receptor of under 300 nM.

Molecule `CN1CCC(OC(c2nc3ccccc3[nH]2)c2ccccc2Br)CC1` (stereo not shown) [Example 262, 2-[(2-bromophenyl)(1-methylpiperidin-4-yloxy)methyl]-1H-benzimidazole] displayed a melting point of 213 °C. The same molecule displayed a Ki or IC50 activity class on human H4 receptor of under 300 nM.

In turn, `CN1CCC(OC(c2cccc(OCCN)c2)c2nc3ccccc3s2)CC1` (stereo not shown) [Example 271, 2-{3-[benzothiazol-2-yl(1-methylpiperidin-4-yloxy)methyl]phenoxy}ethylamine] had a melting point of 76 °C. Also, the Ki or IC50 activity class at human H4 receptor is under 30 nM.

The molecule `CN1CCC(OC(c2ccccc2)c2nc3ccccc3[nH]2)C1` (stereo not shown) [Example 272, 2-[(1-methylpyrrolidin-3-yloxy)phenyl-methyl]-1H-benzimidazole] yielded a melting point of 53 °C. The Ki or IC50 activity class on human H4 receptor is under 1000 nM.

Regarding `Cc1ccc(C(NC2CCN(C)CC2)c2nc3ccccc3[nH]2)cc1` (stereo not shown) [Example 273, [(1H-benzimidazol-2-yl)-p-tolyl-methyl](1-methylpiperidin-4-yl)amine], the melting point came to 183 °C. Also, the Ki or IC50 activity class on human H4 receptor is under 1000 nM.

`CN1CCC(OC(c2cccc(OCCN)c2)c2nc3ccccc3[nH]2)CC1` (stereo not shown) [Example 291, 2-{3-[(1H-benzimidazol-2-yl)(1-methylpiperidin-4-yloxy)methyl]phenoxy}ethylamine]: the melting point is 90 °C. For the same molecule, the Ki or IC50 activity class at human H4 receptor was under 300 nM.

With `CN1CCC(OC(c2cccc(SCCNC(N)=O)c2)c2nc3ccccc3[nH]2)CC1` (stereo not shown) [Example 298, (2-{3-[(1H-benzimidazol-2-yl)(1-methylpiperidin-4-yloxy)methyl]phenylsulfanyl}ethyl)urea], the melting point is 136 °C. At human H4 receptor, the Ki or IC50 activity class was under 1000 nM.

The molecule `CN1CCC(OC(c2ccc3c(c2)OCCO3)c2nc3ccccc3[nH]2)CC1` (stereo not shown) [Example 300, 2-[(2,3-dihydrobenzo[1,4]dioxin-6-yl)(1-methylpiperidin-4-yloxy)methyl]-1H-benzimidazole] yielded a melting point of 203 °C. In addition, at human H4 receptor, the Ki or IC50 activity class is under 300 nM.

In turn, `CN1CCC(OC(c2cccc(SCCNC(=N)NC(=O)OC(C)(C)C)c2)c2nc3ccccc3s2)CC1` (stereo not shown) [Example 304, N-tert-butoxycarbonyl-N′-(2-{3-[(benzothiazol-2-yl)(1-methylpiperidin-4-yloxy)methyl]phenylsulfanyl}ethyl)guanidine] showed a melting point of 110 °C. The molecule further returned a Ki or IC50 activity class at human H4 receptor of under 30 nM.

As for `CN1CCC(OC(c2cccc(OCc3ccccn3)c2)c2nc3ccccc3[nH]2)CC1` (stereo not shown) [Example 310, 2-{(1-methylpiperidin-4-yloxy)[3-(pyridin-2-ylmethoxy)phenyl]methyl}-1H-benzimidazole], the melting point turned out to be 77 °C. Besides, the Ki or IC50 activity class on human H4 receptor is under 300 nM.

As for `CN1CCC(OC(c2cccc(SCCNC(=N)NC#N)c2)c2nc3ccccc3[nH]2)CC1` (stereo not shown) [Example 318, N-(2-{3-[(1H-benzimidazol-2-yl)(1-methylpiperidin-4-yloxy)methyl]phenylsulfanyl}ethyl)-N′-cyanoguanidine], the melting point amounted to 65 °C. The molecule also showed a Ki or IC50 activity class at human H4 receptor of under 30 nM.

In the case of `CN1CCC(OC(c2cccc(OCCCN)c2)c2nc3ccccc3[nH]2)CC1` (stereo not shown) [Example 327, 3-{3-[(1H-benzimidazol-2-yl)(1-methylpiperidin-4-yloxy)methyl]phenoxy}propylamine], the melting point was 97 °C. On human H4 receptor, this molecule gave a Ki or IC50 activity class of under 300 nM.

`CN1CCC(OC(c2nc3ccccc3[nH]2)c2cccc(I)c2F)CC1` (stereo not shown) [Example 334, 2-[(2-fluoro-3-iodophenyl)(1-methylpiperidin-4-yloxy)methyl]-1H-benzimidazole] came in with a melting point of 125 °C. Besides, the Ki or IC50 activity class on human H4 receptor is under 300 nM.

`CN1CCC(OC(c2cccc(C#CCCCNC(=N)NC(=O)OC(C)(C)C)c2)c2nc3ccccc3s2)CC1` (stereo not shown) [Example 339, N-tert-butoxycarbonyl-N′-(5-{3-[(benzothiazol-2-yl)(1-methylpiperidin-4-yloxy)methyl]phenyl}pent-5-ynyl)guanidine] yielded a melting point of 125 °C. On human H4 receptor, this molecule showed a Ki or IC50 activity class of under 300 nM.

For the molecule `CN1CCC(OC(c2cccc(C#CCCCCNC(=N)NC(=O)OC(C)(C)C)c2)c2nc3ccccc3s2)CC1` (stereo not shown) [Example 341, N-tert-butoxycarbonyl-N′-(6-{3-[(benzothiazol-2-yl)(1-methylpiperidin-4-yloxy)methyl]phenyl}hex-5-ynyl)guanidine], the melting point stood at 130 °C. Also, the Ki or IC50 activity class on human H4 receptor is under 300 nM.
